Assay type in all cases: cell-based
For one assay, the system named is MCF7 cells. The assay can be described thus: MTT proliferation assay, MCF7 breast cancer cells. To be noted: for effect on proliferation of MCF7 cells: increasing concentrations, 24 and 48 hours, 10% charcoal-stripped phenol-free serum, dose dependent; for effect on proliferation / IC50: MCF7 cells; for IC50: Homo sapiens. The protocol:
(§1) First, the role of THs on breast cancer cell proliferation was evaluated using escalating doses of tri-iodothyronine (T3) and thyroxine (T4). […] In particular, the compound of Formula (I) or compound of Formula (Ia) is dronedarone. Dronedarone was selected as it is an FDA approved anti-arrhythmic drug.
(§2) The effect of increasing concentrations of T3 and T4 on the proliferation of 3 breast cancer cell lines (MCF 7, MD-MB-231, BT-474) in 10% charcoal-stripped phenol-free serum was evaluated at 24 and 48 hours following standard MTT-assay protocols. Increasing doses of PTU and dronedarone were added to cells with 200 μM T3 or T4 to measure proliferation of MCF-7 and MD-MB-231 cells using MTT assays.

A further assay deals with MD-MB-231 cells. The assay can be described thus: MTT proliferation assay, MD-MB-231 breast cancer cells. To be noted: for effect on proliferation of MD-MB-231 cells: increasing concentrations, 24 and 48 hours, 10% charcoal-stripped phenol-free serum, dose dependent. On the procedure:
as §1, §2

The subject of the next assay is BT-474 cells. The assay can be described thus: MTT proliferation assay, BT-474 breast cancer cells. To be noted: increasing concentrations, 24 and 48 hours, 10% charcoal-stripped phenol-free serum, dose dependent. The protocol:
as §1, §2
On the technique in general: Formazan colour is commonly taken as a measure of viable cells.

Where two headings read alike, the source gives them in different places. Bounds are passed on as bounds.

Consider `N[C@@H](Cc1cc(I)c(Oc2cc(I)c(O)c(I)c2)c(I)c1)C(=O)O` [T4, thyroxine], for which the “effect on proliferation of MCF7 cells” value in the assay with MCF7 cells is on record as “statistically significant increase”. Also, the “effect on proliferation of MD-MB-231 cells” value in the assay with MD-MB-231 cells is reported as “statistically significant increase”. In the assay on BT-474 cells, the “effect on proliferation of BT-474 cells” value is reported as “statistically significant increase”.
Take `CCCCc1oc2ccc(NS(C)(=O)=O)cc2c1C(=O)c1ccc(OCCCN(CCCC)CCCC)cc1` [dronedarone]: the effect on proliferation entry in the assay with MCF7 cells (10 μM dronedarone in combination with T3) is listed as “significantly reduced proliferation”; with MCF7 cells (10 μM dronedarone in combination with T4), “significantly reduced proliferation”; with MD-MB-231 cells (MD-MB-231 cells, 10 μM dronedarone in combination with T3), “significantly reduced proliferation”; in the assay on MD-MB-231 cells (MD-MB-231 cells, 10 μM dronedarone in combination with T4), “significantly reduced proliferation”. The “effect on cell proliferation” value with MD-MB-231 cells (dronedarone alone, without T3/T4 (FIG. 13: MDA-MB-231 cells, 24 hours)) is recorded as “not affected”.
Regarding `CCCc1cc(=O)[nH]c(=S)[nH]1` [PTU, propylthiouracil], the IC50 with MCF7 cells (in the presence of T3 (FIG. 10), read-out: IC50 (proliferation)) was 12 µM; with MCF7 cells (in the presence of T4 (FIG. 10), read-out: concentration reducing proliferation by 50%), around 5 µM; in the assay with MD-MB-231 cells (Homo sapiens, PTU alone, without T3/T4 (FIG. 11: MDA-MB-231 cells, 24 hours), read-out: concentration reducing cell proliferation by 50%), above 12 µM; in the assay on MD-MB-231 cells (MD-MB-231 cells, in the presence of T3 (FIG. 10), read-out: IC50 (proliferation)), 12 µM; with MD-MB-231 cells (MD-MB-231 cells, in the presence of T4 (FIG. 10), read-out: concentration reducing proliferation by 50%), around 5 µM.
In the case of `N[C@@H](Cc1cc(I)c(Oc2ccc(O)c(I)c2)c(I)c1)C(=O)O` [T3, tri-iodothyronine], in the assay with MCF7 cells, the “effect on proliferation of MCF7 cells” value is on record as “statistically significant increase”. The “effect on proliferation of MD-MB-231 cells” value in the assay with MD-MB-231 cells was “statistically significant increase”. Also, the “effect on proliferation of BT-474 cells” value in the assay on BT-474 cells is given as “statistically significant increase”.

The values are drawn from patent publication US10576056B2, “Compounds for treating cancer and methods of use thereof” (MCMASTER UNIVERSITY, priority 2015, dated 2020).
